# Legend:
# healthy volunteers = assay: First in human study Part 2: MAD, incidence of adverse events and MTD; format: in vivo; conditions: for AEs leading to discontinuation of: nE / AEs leading to discontinuation of: nS (%) / AEs of Mild severity: nE / AEs of Mild severity: nS (%) / AEs of Moderate: nE / AEs of Moderate: nS (%) / AEs, Subjects with AEs: nE (AE events) / AEs, Subjects with AEs: nS (%) (subjects with at least one AE) / Serious AEs: nE / Serious AEs: nS (%) / Study drug-related AEs: nE / Study drug-related AEs: nS (%) / Study-drug related AEs (last line of Table 2): nE / Study-drug related AEs (last line of Table 2): nS (%): MAD, N = 6
# Procedure: (§1) Part 2 tested multiple ascending doses (MAD) of compound I, administering (i) 1 drop of 0.15%, 1.5%, 2.5%, 4 times daily (every 6 hours) for 7 days or (ii) 1 drop of 2.5%, 8 times daily (every 3 hours) for 7 days (supra-therapeutic dose) as eye drops.
# Safety assessments: Safety assessments consisted of collecting all adverse events (AEs), serious adverse events (SAEs), including systemic and ocular adverse events, along with their severity and relationship to study drug. Systemic safety assessments included regular monitoring of hematology, blood chemistry and urinalysis performed at study center and regular assessments of physical examination, vital signs (systolic and diastolic blood pressure, pulse rate, and body temperature), ECG, pregnancy and assessments of fertility and hand immersion test at 49° C. during MAD part. Ocular safety assessments included early treatment diabetic retinopathy study (ETDRS) visual acuity, intraocular pressure, slit-lamp biomicroscopy, corneal staining and dilated fundus exam.
# Inclusion Criteria: • Written informed consent was obtained before any assessment was performed. • Healthy male and female subjects aged 18 to 50 years (inclusive), and in good health as determined by past medical history, physical examination, vital signs, ECG, and laboratory tests at Screening. • At Screening, and Baseline, vital signs (systolic and diastolic blood pressure (BP) and pulse rate) were assessed in the sitting position after the subject had rested for at least 3 minutes and again after 3 minutes in the standing position. […] BMI=Body weight (kg)/[Height (m)]^2 • Subjects who were able to communicate well with the Investigator, to understand and comply with the requirements of the study. • For Part 3, subjects Baseline levels of eye sensitivity were to be in the range of 50 to 60 mm (inclusive) as measured by the Cochet-Bonnet esthesiometer.
# History of any chronic eye disease other than refractive error, incipient cataract, strabismic amblyopia, or anisometropic amblyopia. Subjects with a history of acute eye disease (such as infection, corneal abrasion or allergy) within the past 6 months from Screening were eligible if the disease was not active. • Any currently active ocular condition that required use of topical eye drops. • Subjects using continuous positive airway pressure or other sleep apnea devices.
# [1] = First in human study plasma pharmacokinetics; format: in vivo
# Procedure: This example describes a first-in-human study of compound I conducted in healthy volunteers. A total of 54 subjects were administered to study medication. Part 1 of the first in human study administered single ascending doses of 0.15%, 1.5%, 2.5% w/v (1 drop) of compound I in an eye drop.
# as §1
# Accumulation of compound I at steady-state was minor (˜1.7-fold) following administration of 0.15%, 1.5% or 2.5% suspension 4 times daily and also minor (˜1.3-fold) following 2.5% 8 times daily for 7 days.
# [2] = tested on: patients undergoing photorefractive keratectomy (PRK) surgery; assay: PRK study: Ocular Pain Assessment Survey (OPAS); format: in vivo, human
# Procedure: The study was a proof of concept, double-masked, randomized, vehicle-controlled study of compound I administered as eye drops in addition to standard of care treatment in patients after PRK surgery. PRK surgery was performed as an outpatient procedure under topical anesthesia with removal of the corneal epithelium to expose the stroma for the laser ablation. Compound I dosing was as single eye drop of 2.5% (25 mg/ml, 0.925 mg/drop), administered four times daily (every six hours) in one eye from immediate post-op (time 0) to last dose at 72 hours.
# The OPAS is a validated instrument for quantifying and monitoring corneal and ocular surface pain and quality of life, developed in response to an identified need from a National Eye Institute Workshop in 2010. See Qazi et al., Ophthalmology July 123(7):1458-1468 (2016). The rating scale of the overall pain severity in the OPAS from Qazi et al. rated from 0 (no pain) to 10 (severe pain) or for frequency of symptoms from 0% (never) to 100% (all the time), as per the survey. The patients were asked to fill out the OPAS survey/questionnaire at Day 2, Day 4 (at the end of treatment period with study drug) and Day 8. Statistical analysis of OPAS results was not performed.
structure (smiles),measurement,setting,value
"CC(C)c1nc2cc(O)ccc2c(=O)n1-c1ccc(C#N)cc1 [Compound I, 4-(7-hydroxy-2-isopropyl-4-oxo-4H-quinazolin-3-yl)-benzonitrile]",Dose limiting adverse events,"healthy volunteers; 2.5%, 8 times daily for 7 days",No dose limiting adverse events were identified
same,AEs leading to discontinuation of: nE,healthy volunteers; 0.15% 4 times daily for 7 days,0
same,AEs leading to discontinuation of: nS (%),healthy volunteers; 0.15% 4 times daily for 7 days,0 (0.0) nS (%)
same,AEs of Mild severity: nE,healthy volunteers; 0.15% 4 times daily for 7 days,6
same,AEs of Mild severity: nS (%),healthy volunteers; 0.15% 4 times daily for 7 days,3 (50.0) nS (%)
same,AEs of Moderate: nE,healthy volunteers; 0.15% 4 times daily for 7 days,0
same,AEs of Moderate: nS (%),healthy volunteers; 0.15% 4 times daily for 7 days,0 (0.0) nS (%)
same,"AEs, Subjects with AEs: nE (AE events)",healthy volunteers; 0.15% 4 times daily for 7 days,6
same,"AEs, Subjects with AEs: nS (%) (subjects with at least one AE)",healthy volunteers; 0.15% 4 times daily for 7 days,3 (50.0) nS (%)
same,Serious AEs: nE,healthy volunteers; 0.15% 4 times daily for 7 days,"0, 0"
same,Serious AEs: nS (%),healthy volunteers; 0.15% 4 times daily for 7 days,"0, 0 nS (%)"
same,Study drug-related AEs: nE,healthy volunteers; 0.15% 4 times daily for 7 days,5
same,Study drug-related AEs: nS (%),healthy volunteers; 0.15% 4 times daily for 7 days,2 (33.3) nS (%)
same,Study-drug related AEs (last line of Table 2): nE,healthy volunteers; 0.15% 4 times daily for 7 days,0
same,Study-drug related AEs (last line of Table 2): nS (%),healthy volunteers; 0.15% 4 times daily for 7 days,0 (0.0) nS (%)
same,AEs leading to discontinuation of: nE,healthy volunteers; 1.5% 4 times daily for 7 days,0
same,AEs leading to discontinuation of: nS (%),healthy volunteers; 1.5% 4 times daily for 7 days,0 (0.0) nS (%)
same,AEs of Mild severity: nE,healthy volunteers; 1.5% 4 times daily for 7 days,11
same,AEs of Mild severity: nS (%),healthy volunteers; 1.5% 4 times daily for 7 days,5 (83.3) nS (%)
same,AEs of Moderate: nE,healthy volunteers; 1.5% 4 times daily for 7 days,1
same,AEs of Moderate: nS (%),healthy volunteers; 1.5% 4 times daily for 7 days,1 (16.7) nS (%)
same,"AEs, Subjects with AEs: nE (AE events)",healthy volunteers; 1.5% 4 times daily for 7 days,12
same,"AEs, Subjects with AEs: nS (%) (subjects with at least one AE)",healthy volunteers; 1.5% 4 times daily for 7 days,5 (83.3) nS (%)
same,Serious AEs: nE,healthy volunteers; 1.5% 4 times daily for 7 days,0
same,Serious AEs: nS (%),healthy volunteers; 1.5% 4 times daily for 7 days,0 (0.0) nS (%)
same,Study drug-related AEs: nE,healthy volunteers; 1.5% 4 times daily for 7 days,9
same,Study drug-related AEs: nS (%),healthy volunteers; 1.5% 4 times daily for 7 days,3 (50.0) nS (%)
same,Study-drug related AEs (last line of Table 2): nE,healthy volunteers; 1.5% 4 times daily for 7 days,0
same,Study-drug related AEs (last line of Table 2): nS (%),healthy volunteers; 1.5% 4 times daily for 7 days,0 (0.0) nS (%)
same,AEs leading to discontinuation of: nE,healthy volunteers; 2.5% 4 times daily for 7 days,"1, 1"
same,AEs leading to discontinuation of: nS (%),healthy volunteers; 2.5% 4 times daily for 7 days,"1, 1 nS (%)"
same,AEs of Mild severity: nE,healthy volunteers; 2.5% 4 times daily for 7 days,3
same,AEs of Mild severity: nS (%),healthy volunteers; 2.5% 4 times daily for 7 days,2 (33.3) nS (%)
same,AEs of Moderate: nE,healthy volunteers; 2.5% 4 times daily for 7 days,1
same,AEs of Moderate: nS (%),healthy volunteers; 2.5% 4 times daily for 7 days,1 (16.7) nS (%)
same,"AEs, Subjects with AEs: nE (AE events)",healthy volunteers; 2.5% 4 times daily for 7 days,4
same,"AEs, Subjects with AEs: nS (%) (subjects with at least one AE)",healthy volunteers; 2.5% 4 times daily for 7 days,2 (33.3) nS (%)
same,Serious AEs: nE,healthy volunteers; 2.5% 4 times daily for 7 days,0
same,Serious AEs: nS (%),healthy volunteers; 2.5% 4 times daily for 7 days,0 (0.0) nS (%)
same,Study drug-related AEs: nE,healthy volunteers; 2.5% 4 times daily for 7 days,4
same,Study drug-related AEs: nS (%),healthy volunteers; 2.5% 4 times daily for 7 days,2 (33.3) nS (%)
same,Study-drug related AEs (last line of Table 2): nE,healthy volunteers; 2.5% 4 times daily for 7 days,1
same,Study-drug related AEs (last line of Table 2): nS (%),healthy volunteers; 2.5% 4 times daily for 7 days,1 (16.7) nS (%)
same,AEs leading to discontinuation of: nE,healthy volunteers; 2.5% 8 times daily for 7 days,0
same,AEs leading to discontinuation of: nS (%),healthy volunteers; 2.5% 8 times daily for 7 days,0 (0.0) nS (%)
same,AEs of Mild severity: nE,healthy volunteers; 2.5% 8 times daily for 7 days,3
same,AEs of Mild severity: nS (%),healthy volunteers; 2.5% 8 times daily for 7 days,2 (33.3) nS (%)
same,AEs of Moderate: nE,healthy volunteers; 2.5% 8 times daily for 7 days,0
same,AEs of Moderate: nS (%),healthy volunteers; 2.5% 8 times daily for 7 days,0 (0.0) nS (%)
same,"AEs, Subjects with AEs: nE (AE events)",healthy volunteers; 2.5% 8 times daily for 7 days,3
same,"AEs, Subjects with AEs: nS (%) (subjects with at least one AE)",healthy volunteers; 2.5% 8 times daily for 7 days,2 (33.3) nS (%)
same,Serious AEs: nE,healthy volunteers; 2.5% 8 times daily for 7 days,0
same,Serious AEs: nS (%),healthy volunteers; 2.5% 8 times daily for 7 days,0 (0.0) nS (%)
same,Study drug-related AEs: nE,healthy volunteers; 2.5% 8 times daily for 7 days,2
same,Study drug-related AEs: nS (%),healthy volunteers; 2.5% 8 times daily for 7 days,1 (16.7) nS (%)
same,Study-drug related AEs (last line of Table 2): nE,healthy volunteers; 2.5% 8 times daily for 7 days,0
same,Study-drug related AEs (last line of Table 2): nS (%),healthy volunteers; 2.5% 8 times daily for 7 days,0 (0.0) nS (%)
same,Severity of adverse events of suspected causality to compound I,"healthy volunteers; Parts 1, 2 and 3, exception in the 2.5% 4 times daily cohort","mild severity, except for moderate severity eye irritation"
same,Most frequent ocular adverse events,"healthy volunteers; compound I treated, compared with placebo","corneal staining, hyperemia and mild anterior chamber inflammation, in levels similar to placebo"
same,Maximum Tolerated Dose (MTD),"healthy volunteers; maximum feasible concentration, 8 times daily for 7 days, eye drops",2.5%
same,Accumulation at steady-state,"[1]; 0.15%, 1.5% or 2.5% suspension 4 times daily",~1.7 fold
same,Accumulation at steady-state,"[1]; 2.5%, 8 times daily for 7 days",~1.3 fold
same,Increase in systemic exposure with dose,[1]; dose from 0.15% to 2.5%,less than dose-proportional increase
same,Absorption into systemic circulation (plasma PK profile),"[1]; single and multiple topical ocular suspension doses 0.15%, 1.5%, 2.5%",rapid absorption
same,"OPAS questions 4, 5, 6: eye pain intensity during the previous 24 hours (most painful, least painful, average)","[2]; Day 2, compared to Vehicle, no statistical analysis",all 3 answers numerically favored compound I
same,"OPAS questions 22-25: how often eye pain associated with redness, burning, sensitivity to light, tearing","[2]; compared to Vehicle, no statistical analysis",all answers favored compound I
same,"OPAS: pain control and quality of life, compound I vs. Vehicle treatment period",[2]; in vivo,better pain control and quality of life

# Source: US11234982B2, “Methods for treating ocular surface pain” (NOVARTIS AG, priority 2019, dated 2022)
